Laboratory results reported in article PMC12289066, “Identification of glutathione transferase (GST P1) inhibitors via a high-throughput screening assay and implications as alternative treatment options for breast cancers” (PLOS One, 2025).

Target: T1, GST P1-1 (Homo sapiens, UniProt P09211)
T1 construct: purchased Sigma-Aldrich
Assay: High-throughput GST P1-1 inhibition assay (384-well screen, CDNB/GSH)
Assay type: biochemical
Settings: compound 10 μM; score 0 = negative control (DMSO), 1 = positive control (EA 50 μM); average of duplicate
Description: Each drug compound was added to the respective well at a volume of 80 nL of 10 mM stock solution in DMSO, yielding a final compound concentration of 10 μM and a final DMSO concentration of 0.1%. Each plate’s first and last two columns were used as negative (no compound added – 80 nL per well of DMSO) and positive (80 nL of EA added with a final concentration of 50 μM) controls, respectively. The Gyger Certus Flex dispenser was set up using a freshly prepared 1 mM of GSH and 20 nM of GST P1-1, pH 7.4, in one syringe and 8 mM CDNB solution in pure ethanol in the other syringe. Into each well 80 μL of GST-GSH solution was dispensed and incubated at 25°C for 20 minutes before the reaction was initiated by the addition of 4 μL of CDNB solution. The plates were incubated for 2 h in the dark at 25°C and then the absorbance was of each well recorded on a BioTek Synergy NEO HTS multimode plate reader (Agilent®) at a wavelength of 340 nm.
The z’factor was calculated for each plate according to Zhang et al.. The Z-factor is a dimensionless, simple statistical characteristic for each HTS assay. This provides a valuable tool for the comparison and assessment of the quality of assays, and can be utilized in assay optimization and validation. For each plate, the concentration of product was normalized by assigning a score of 0 (0%) to the negative control (average of maximal concentration of product measured in the presence of enzyme without any inhibitor) and a score of 1 (100%) was assigned to the positive control (average minimal concentration of product measured in the presence of enzyme with the reference inhibitor, i.e., EA). The experiment was performed in duplicate and the score for each drug compound was calculated as an average ± standard deviation. […] An internal laboratory information management system (LIMS) was used for basic data processing, management, visualization, and statistical hit validation.

T1 sequence (P09211 2-210 limits assumed): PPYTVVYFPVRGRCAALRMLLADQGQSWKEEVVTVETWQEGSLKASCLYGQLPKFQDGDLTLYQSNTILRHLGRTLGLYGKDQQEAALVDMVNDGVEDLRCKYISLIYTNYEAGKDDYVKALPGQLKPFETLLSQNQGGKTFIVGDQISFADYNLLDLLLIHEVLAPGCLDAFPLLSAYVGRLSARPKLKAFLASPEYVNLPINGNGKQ

Going from `O=C1C(CC[S+]([O-])c2ccccc2)C(=O)N(c2ccccc2)N1c1ccccc1` (stereo not drawn) [Sulfinpyrazone] to `O=C1C=Cc2cc(Br)ccc2C1=O` [Bonaphthone], the Score falls from 0.823 to 0.770.

First: Cc1c(S(=O)(=O)O)oc2c1C(=O)C(=O)c1c-2ccc2c1CCCC2(C)C [Tanshinone IIA sulfonate (sodium), Tanshinone IIA sulfonate]
Second: O=C(O)C(Cc1ccccc1[N+](=O)[O-])=NNc1nc(-c2ccc(Cl)c(Cl)c2)cs1 (mixture of isomers) [4EGI-1]
The Score of the first is higher: 0.981 for the first, 0.730 for the second.

Compared with `CC1(C)CC[C@]2(NC(=O)C(C)(F)F)CC[C@]3(C)[C@H](C(=O)C=C4[C@@]5(C)C=C(C#N)C(=O)C(C)(C)[C@@H]5CC[C@]43C)[C@@H]2C1` [RTA-408], `Oc1cccc(-c2c3nc(c(-c4cccc(O)c4)c4ccc([nH]4)c(-c4cccc(O)c4)c4nc(c(-c5cccc(O)c5)c5ccc2[nH]5)CC4)C=C3)c1` [Temoporfin] is lower in Score: 0.807 for the first, 0.699 for the second.

First: O=c1c(-c2ccccc2)c1-c1ccccc1 [Diphencyprone]
Second: TC-I-2000
The Score of the first is higher: 0.744 for the first, 0.729 for the second.

First: O=C(/C=C/c1ccccc1)NC(NC(=S)Nc1ccc(Cl)cc1)C(Cl)(Cl)Cl (stereo not drawn) [Sal003]
Second: CC1=NN(c2ccccc2)C(=O)C1 [Edaravone]
The Score of the first is lower: 0.865 for the first, 0.958 for the second.

First: CCOC(=O)Nc1cc(-c2ccc(C)c(NS(C)(=O)=O)c2)nn2c(C)nnc12 [Bromosporine]
Second: CCN(CC)c1ccc(C(=C2C=CC(=[N+](CC)CC)C=C2)c2ccccc2)cc1 [Brilliant-green]
The Score of the first is higher: 0.801 for the first, 0.783 for the second.

First: CC1=C(CCC(=O)O)c2cc3[nH]c(cc4nc(cc5[nH]c(cc1n2)c(C)c5C(C)O)C(C)=C4C(C)O)c(C)c3CCC(=O)O (stereo not drawn) [Hematoporphyrin]
Second: CC(C)=CCC/C(C)=C/CC/C(C)=C/CSc1ccccc1C(=O)O [Salirasib]
The Score of the first is higher: 0.758 for the first, 0.717 for the second.

Compared with `CC/C=C\C/C=C\C/C=C\C/C=C\C/C=C\C/C=C\CCC(=O)O` [Docosahexaenoic Acid], `O=C(O)c1ccc(-c2ccc3cc(O)c(C45CC6CC(CC(C6)C4)C5)cc3c2)cc1` [CD-1530] is higher in Score: 0.821 for the first, 0.979 for the second.

Going from `CC[C@@H](C(=O)[C@@H](C)[C@@H](O)[C@H](C)CCc1ccc(C)c(O)c1C(=O)O)[C@H]1O[C@](CC)([C@H]2CC[C@](O)(CC)[C@H](C)O2)C[C@@H]1C` [Lasalocid] to AS-2034178, the Score rises from 0.863 to 0.982.

First: Cc1cc(F)c(Nc2ncnc3cc(OCc4ccccc4)ccc23)cc1O.Cl [ZM323881 (hydrochloride)]
Second: C=CC1=C(C)c2cc3[nH]c(cc4nc(cc5[nH]c(cc1n2)c(C)c5CCC(=O)O)C(CCC(=O)O)=C4C)c(C)c3C=C [Protoporphyrin IX]
The Score of the first is higher: 0.946 for the first, 0.914 for the second.

First: CC#C[C@@H](CC(=O)[O-])c1ccc(OCc2cccc(-c3ccc(C(F)(F)F)cc3)c2)cc1.CC#C[C@@H](CC(=O)[O-])c1ccc(OCc2cccc(-c3ccc(C(F)(F)F)cc3)c2)cc1.O.[Ca+2] [AMG 837 (calcium hydrate)]
Second: CC(C)(C)c1ccc(CN2CCN(C(c3ccccc3)c3ccc(Cl)cc3)CC2)cc1 (stereo not drawn) [Buclizine]
The Score of the first is higher: 0.783 for the first, 0.694 for the second.

Compared with `CCCCCC/C=C/C=C\CCCCCCCC(=O)O` [Cis-9,trans-11-Conjugated-linoleic-acid], `CCOc1c2c(c(OCC)c3ccccc13)C(=O)N(c1ccc(CC(=O)NS(=O)(=O)c3ccccc3)cc1)C2` [GW627368] is higher in Score: 0.796 for the first, 0.854 for the second.

Compared with `O=[N+]([O-])/C=C/c1ccc2c(c1)OCO2` [MNS], `CC(C)c1onc(-c2c(Cl)cccc2Cl)c1COc1ccc(/C=C/c2cccc(C(=O)O)c2)c(Cl)c1` [GW 4064] is lower in Score: 0.850 for the first, 0.702 for the second.

Compared with `CC1=C(/C=C/C(=C/C=C/C(C)=C/C(=O)O)c2ccc(C)cc2)C(C)(C)CCC1` [SR-11302], `O=C(O)C1(c2ccc(-c3ccc(Cl)c(Cl)c3)c(F)c2)CC1` [CHF5074] is higher in Score: 0.733 for the first, 0.911 for the second.

Going from `COc1cc(-c2ccc(N=Nc3ccc4c(S(=O)(=O)[O-])cc(S(=O)(=O)[O-])c(N)c4c3O)c(OC)c2)ccc1N=Nc1ccc2c(S(=O)(=O)[O-])cc(S(=O)(=O)[O-])c(N)c2c1O.[Na+].[Na+].[Na+].[Na+]` [Chicago sky blue 6B] to `O=C1c2c(O)cccc2Cc2cccc(O)c21` [Anthralin], the Score falls from 0.863 to 0.694.

Going from `COc1cc(C(=O)NS(=O)(=O)c2ccccc2C)ccc1Cc1cn(C)c2ccc(NC(=O)OC3CCCC3)cc12` [Zafirlukast] to `NC[C@@](O)(c1ccc(Cl)cc1)c1ccc(-c2cn[nH]c2)cc1` [AT13148], the Score falls from 0.801 to 0.738.

Compared with `O=C(O)C(=O)c1cn(Cc2ccccc2)c2ccc(-c3ccc(OC(F)(F)F)cc3)cc12` [Tiplaxtinin], `O=C1OC2(c3ccccc31)c1cc(I)c(O)c(I)c1Oc1c2cc(I)c(O)c1I` [Erythrosine] is lower in Score: 0.836 for the first, 0.828 for the second.

Going from `O=C([O-])c1ccccc1-c1c2cc(Br)c(=O)cc-2oc2[c]([Hg+])c([O-])c(Br)cc12.[Na+].[Na+].[OH-]` [Merbromin] to `COc1cc(C[C@H](C)[C@H](C)Cc2ccc3c(c2)OCO3)ccc1O` [Macelignan], the Score falls from 0.993 to 0.803.

First: C=CC(=O)c1ccc2ccccc2c1 [JAK3-inhibitor-V]
Second: Oc1ccc2ccccc2c1SSc1c(O)ccc2ccccc12 [IPA-3]
The Score of the first is lower: 0.817 for the first, 0.881 for the second.

Compared with `Cc1noc(-c2ccc(CSCCC(=O)O)cc2)c1NC(=O)OC(C)c1ccccc1Cl` (stereo not drawn) [Ki16425], `N[C@@H](Cc1cc(-c2ccc(Cl)cc2Cl)cc(CP(=O)(O)O)c1O)C(=O)O` [SDZ-220-040] is higher in Score: 0.710 for the first, 0.871 for the second.

First: Cc1cc(=O)n(-c2ccccc2)[nH]1 [N-demethylantipyrine]
Second: CCCCCCCCCCCCc1ccc(S(=O)(=O)Nc2nncs2)cc1 [PHT-427]
The Score of the first is higher: 1.019 for the first, 0.696 for the second.

First: O=S(=O)(O)c1ccc(-c2c3nc(c(-c4ccc(S(=O)(=O)O)cc4)c4ccc([nH]4)c(-c4ccc(S(=O)(=O)O)cc4)c4nc(c(-c5ccc(S(=O)(=O)O)cc5)c5ccc2[nH]5)C=C4)C=C3)cc1 [TPPS4]
Second: CC1(C)CCC(C)(C)c2cc(Cn3cccn3)c(/C=C/c3ccc(C(=O)O)cc3)cc21 [Palovarotene]
The Score of the first is higher: 0.809 for the first, 0.763 for the second.

Going from `O=C(Nc1cccc(C(F)(F)F)c1)Nc1ccc(Br)cc1-c1nn[nH]n1` [NS-3623] to `O=C1OC2(c3cc(I)c(O)c(I)c3Oc3c2cc(I)c(O)c3I)c2c(Cl)c(Cl)c(Cl)c(Cl)c21` [Rose-bengal-lactone], the Score rises from 0.752 to 0.937.

Going from `Oc1ccc(Nc2nc(-c3ccc(Cl)cc3)cs2)cc1` [SKI II] to `O=C1OC2(c3cc(I)c(O)c(I)c3Oc3c2cc(I)c(O)c3I)c2c(Cl)c(Cl)c(Cl)c(Cl)c21` [Rse-bengal], the Score rises from 0.694 to 0.996.

Going from `CC(C)c1cccc2c(-c3ccccc3)cc(-c3ccc(-c4ccc(C(=O)O)cc4)[nH]3)nc12` [ER-50891] to `CC(C)(c1ccc(OCC2CO2)cc1)c1ccc(OCC2CO2)cc1` (stereo not drawn) [BADGE], the Score falls from 0.927 to 0.715.

Compared with `Cc1cc(-c2ccc(/N=N/c3ccc4c(S(=O)(=O)O)cc(S(=O)(=O)O)c(N)c4c3O)c(C)c2)ccc1/N=N/c1ccc2c(S(=O)(=O)O)cc(S(=O)(=O)O)c(N)c2c1O` [Evans Blue], `O=C(Nc1ccc(Cl)cc1)Nc1ccc(Cl)c(Cl)c1` [Triclocarban] is lower in Score: 0.783 for the first, 0.702 for the second.

First: Oc1c(Cl)cc(Cl)cc1Sc1cc(Cl)cc(Cl)c1O [Bithionol]
Second: O=C(NCc1ccc(Oc2ccccc2)cc1)c1nc(-c2cc(Br)c(O)c(Br)c2)no1 [IOWH-032]
The Score of the first is higher: 1.007 for the first, 0.901 for the second.
